Assay results reported in patent US11446269B2, “Methods of reducing or preventing oxidation of small dense LDL or membrane polyunsaturated fatty acids” (Amarin Pharmaceuticals Ireland Limited, priority 2014, dated 2022).

Tested on: HUVECs
Experiment: NO and ONOO^− release from HUVECs treated concomitantly with agent-treated oxLDL (Example 11, objective 2)
Format: cell-based, human
Settings: oxLDL 11 mg/dL treated 30 min with agents 10 μM, 60 min exposure, calcium ionophore; in nM
Description: Human umbilical vein endothelial cells (HUVECs) were obtained from healthy, female donors and isolated into primary, proliferating cell cultures (Clonetics, San Diego, Calif.). The cells were incubated in 95% air/5% CO2 at 37° C. and passaged by an enzymatic (trypsin) procedure. The confluent cells (4 to 5×10^5 cells/35 mm dish) were plated with minimum essential medium containing 3 mM L-arginine and 0.1 mM BH4 [(6R)-5,6,7,8-tetrahydrobiopterin]. Before experimental use, the cells (from second or third passage) were rinsed twice with Tyrode-HEPES buffer with 1.8 mM CaCl2.
Concurrent measurements of NO and ONOO^− were performed with tandem electrochemical nanosensors combined into one working unit with a total diameter of 200-400 nm. Their design is based on previously developed and chemically modified carbon-fiber technology. […]
The amperometric method (with a response time of 0.1 ms) provides a quantitative signal (current) that is directly proportional to changes (from basal levels) in NO or ONOO^− concentration. […] Basal NO or ONOO^− levels were measured by differential pulse voltammetry in separate experiments.
All measurements of NO and ONOO^− were performed on intact endothelial cells. […] Cells will then be treated with calcium ionophore (to maximally stimulate the release of nitrous molecules) and monitored continuously for changes in amperometric current. […]

Structure (SMILES): CC/C=C\C/C=C\C/C=C\C/C=C\C/C=C\C/C=C\CCC(=O)O [DHA, docosahexaenoic acid]
- ONOO^− release: 240 ± 27^
